Measured values taken from US11963962B2, “Platelet count-agnostic methods of treating myelofibrosis” (Sierra Oncology, Inc., priority 2018, dated 2024).
Where two headings read alike, the source gives them in different places. Marks after values point to notes of the source that are not given here.

Legend:
myelofibrosis [1] = assay: SIMPLIFY-1 Phase 3 trial: total symptom score (TSS) response at week 24; format: in vivo, human; conditions: for TSS response rate: SIMPLIFY 1, week 24
Description: (§1) In the SIMPLIFY-1 trial (NCT01969838), the efficacy and safety of MMB versus ruxolitinib (RUX) was studied in patients with myelofibrosis who were naïve to treatment with a JAK inhibitor and a platelet count of ≥50×10^9/L. Patients (N=432) with high risk or intermediate-2 risk or symptomatic intermediate-1 risk myelofibrosis received 24 weeks of treatment with 200 mg MMB once daily or 20 mg RUX twice a day (or per label), after which all patients could receive open-label momelotinib. […] The primary endpoint was a reduction by at least 35% in the spleen volume at 24 weeks compared with baseline.
(§2) FIG. 8A: SIMPLIFY-1 study of MMB in a first line population previously untreated with JAKi. For SIMPLIFY-1, the goal was non-inferiority over ruxolitinib (RUX) (MMB: N=215 subjects, and RUX: N=217 subjects). FIG. 8B: SIMPLIFY-2 study of second line population of anemic or thrombocytopenic subjects previously treated with RUX (red blood cell (RBC) transfusions on RUX=64%. RUX dose adjustment for: thrombocytopenia=21%; anemia/hematoma=35%). For SIMPLIFY-2, the goal was superiority over best available treatment (BAT) (MMB: N=104 subjects, and BAT: N=52 subjects). In both SIMPLIFY-1 and SIMPLIFY: Primary endpoint: >=35% reduction in spleen volume at 24 weeks. Secondary endpoints: Total symptom score (TSS) response at 24 weeks. Effects on RBC transfusion requirements.
(§3) The SIMPLIFY 1 clinical trial data was reanalyzed for subgroups of subjects having particular baseline platelet counts in the MMB versus RUX arms of the study.
(§4) Patient data was analyzed according to the following baseline platelet count (PLT) subgroups and in particular according to the threshold PLT of 150×10^9/L: 1) PLT<50×10^9/L; 2) 50×10^9/L≤PLT<100×10^9/L; 3) 100×10^9/L≤PLT<150×10^9/L. The reanalyzed data is presented in Table 13 (SIMPLIFY 1). Selected data is also illustrated in the following figures.

myelofibrosis [2] = assay: SIMPLIFY-1 Phase 3 trial: splenic response rate (SRR); format: in vivo, human; conditions: SIMPLIFY 1, week 24
Description: as §1, §2, §3, §4

myelofibrosis [3] = assay: SIMPLIFY-1 Phase 3 trial: transfusion independence and TD to TI conversion; format: in vivo, human; conditions: SIMPLIFY 1
Description: The improved outcome from MMB therapy that results from practicing the subject methods can be manifested as an improvement in one or more clinical endpoints (e.g., as described herein), such as anemia response, in spleen response and/or symptom response. By “anemia response” is meant an increase in the patient's hemoglobin level or a patient who was transfusion dependent becoming transfusion independent. Desirably, a minimum increase in hemoglobin of 0.5 g/dL, such as 1.0 g/dL 1.5 g/dL or 2.0 g/dL lasting a minimum of 8 weeks is achieved, which is the level of improvement specified in the International Working Group (IWG) consensus criteria. However, smaller, but still medically significant, increases in hemoglobin are also considered to be within the term “anemia response”. “Transfusion independence” is an anemia endpoint and refers to a subject who required no RBC transfusions over a 12 week period and had no hemoglobin levels less than 8 g/dL to 8.5 g/dL over the 12 week period. In some embodiments, the 12 week period of transfusion independence is the terminal 12 weeks of a 24 week study period. By red blood cell (RBC) transfusion independence rate at week 24 of a study is meant the proportion of subjects who were transfusion independent at week 24, excluding cases associated with clinically overt bleeding.
as §1, §2, §3, §4

myelofibrosis [4] = assay: SIMPLIFY-1 Phase 3 trial: safety (anemia, platelet counts, hemoglobin); format: in vivo, human
Description: as §1
The mean platelet count for RUX patients is demonstrably lower than the mean platelet count for MMB patients.
The MMB subjects were thus at lower risk of developing thrombocytopenia (e.g., Grade 3 or 4 thrombocytopenia), or of having to undergo undesirable dose reduction because they were able to largely maintain their platelet counts during therapy.

myelofibrosis [5] = assay: SIMPLIFY-1 dynamic and time-to-event analyses of RBC transfusions; format: in vivo, human; conditions: SIMPLIFY-1, 24 week randomized treatment period
Description: The SIMPLIFY-1 (S1) trial, a double-blind, active-controlled Phase 3 study in which 432 patients received randomized treatment with MMB or RUX for 24 weeks was previously reported (Mesa R A, Kiladjian J J, Catalano J V. et al. “Simplify-1: A phase III randomized trial of momelotinib versus ruxolitinib in j anus kinase inhibitor—naïve patients with myelofibrosis”, Journal of Clinical Oncology, 2017; 35:3844-50).
Since transfusion burden is of significant concern to clinicians and patients, to better understand the dynamics of RBC transfusions we further examined the S1 data through statistical models utilizing a variety of novel anemia benefit endpoints including time until transfusion and overall intensity of transfusions across time. The proportions of patients with 0 and 4 transfusions were calculated and time-to-event analyses examining time-to-first and time-to-fifth units transfused also conducted. Since transfusions typically comprise 2 units, the fifth unit transfused represents a de facto third transfusion event. The number of units transfused were also considered to be recurrent events and examined with and without patients' baseline characteristics as covariates. Finally, a mixture model, based on a zero-inflated negative binomial (ZINB) distribution fit to the transfusion data, was employed to compare between the treatment groups the proportions of subjects with zero transfusion burden and the mean transfusion rates.

myelofibrosis [6] = conditions: cited from earlier work
[7] = ITT, platelets 50-100 (subgroup 2)
[8] = ITT, platelets 100-150 (subgroup 3)
[9] = baseline TSS ≥ 6, platelets 50-100 (subgroup 2)
[10] = baseline TSS ≥ 6, platelets 100-150 (subgroup 3)
[11] = baseline TSS ≥ 10, all patients
[12] = baseline TSS ≥ 10, platelets 50-100 (subgroup 2)
[13] = baseline TSS ≥ 10, platelets 100-150 (subgroup 3)

N#CC[C@H](C1CCCC1)n1cc(-c2ncnc3[nH]ccc23)cn1 [RUX, ruxolitinib, reference compound]
TSS response rate (myelofibrosis [1]; ITT, all patients): 41%
TSS response rate (myelofibrosis [1]; [7]): 22%
TSS response rate (myelofibrosis [1]; [8]): 39%*
TSS response rate (myelofibrosis [1]; baseline TSS ≥ 6, all patients): 42%
TSS response rate (myelofibrosis [1]; [9]): 23%
TSS response rate (myelofibrosis [1]; [10]): 33%
TSS response rate (myelofibrosis [1]; [11]): 43%
TSS response rate (myelofibrosis [1]; [12]): 21%
TSS response rate (myelofibrosis [1]; [13]): 35%
Total Symptom Score (TSS) response (myelofibrosis [1]; SIMPLIFY-1, overall): 42.2%
SRR (myelofibrosis [2]; ITT, all patients): 29%
SRR (myelofibrosis [2]; [7]): 0%
SRR (myelofibrosis [2]; [8]): 6%
SRR (myelofibrosis [2]; baseline TSS ≥ 6, all patients): 29%
SRR (myelofibrosis [2]; [9]): 0%
SRR (myelofibrosis [2]; [10]): 7%
SRR (myelofibrosis [2]; [11]): 29%
SRR (myelofibrosis [2]; [12]): 0%
SRR (myelofibrosis [2]; [13]): 5%
patients with transfusion independence promoted and maintained (TI rate) (myelofibrosis [3]): 49%
Week 24 TI rate (myelofibrosis [3]; ITT, all patients): 49%
Week 24 TI rate (myelofibrosis [3]; [7]): 39%
Week 24 TI rate (myelofibrosis [3]; [8]): 45%*
Week 24 TI rate (myelofibrosis [3]; baseline TSS ≥ 6, all patients): 48%
Week 24 TI rate (myelofibrosis [3]; [9]): 36%
Week 24 TI rate (myelofibrosis [3]; [10]): 41%
Week 24 TI rate (myelofibrosis [3]; [11]): 51%
Week 24 TI rate (myelofibrosis [3]; [12]): 32%
Week 24 TI rate (myelofibrosis [3]; [13]): 45%*
anemia rate (myelofibrosis [4]; SIMPLIFY 1): 38%
≥Grade 3 anemia rate (myelofibrosis [4]; SIMPLIFY 1): 23%
platelet counts during treatment (myelofibrosis [4]; SIMPLIFY 1, 24 week double blind phase, FIGS. 31-33): significant reductions in platelet counts from baseline
Kaplan-Meier estimate of the proportion of patients who did not require any units transfused (myelofibrosis [5]): 46%
proportion of patients requiring 4 or fewer units (myelofibrosis [5]): 62%
median time to recovery of platelet counts above 50×10^9/L (myelofibrosis [6]; after dose reduction or dose interruption): 14 days
median time to onset of thrombocytopenia (myelofibrosis [6]; patients who developed Grade 3 or 4 thrombocytopenia): approximately 8 weeks
frequency of Grade 3 or 4 thrombocytopenia (myelofibrosis [6]; patients with a platelet count of 100×10^9 to 200×10^9/L before starting ruxolitinib): 17%
frequency of Grade 3 or 4 thrombocytopenia (myelofibrosis [6]; patients with an entry platelet count greater than 200×10^9/L): 7%
